Laboratory results reported in EP4603105A1, “PHARMACEUTICAL COMPOSITION CONTAINING CYCLIC COMPOUND HAVING SELECTIVE KRAS INHIBITORY EFFECT AGAINST HRAS AND NRAS” (CHUGAI SEIYAKU KABUSHIKI KAISHA, priority 2022, dated 2024).
*1 amine or outer side, *2 acyl side, *3 side chain or, on linkers, in order; H or OH if unused. Where a SMILES comes first, the peptide text is derived from it. Bridges are numbered along the chain shown (N, C = ends). [ ]: non-standard residue; d: D form. The star is where a group is joined. hPhe(3,5-F2-4-CF3) = N[C@@H](CCc1cc(F)c(C(F)(F)F)c(F)c1)C(=O)O; X48 = CCCN([C@@H](Cc1ccc(OCC=[*:3])cc1)C(=O)[*:2])[*:1]; NPrPhe(4-CF3) = CCCN[C@@H](Cc1ccc(C(F)(F)F)cc1)C(=O)O; X17 = CN([C@@H](CCCCC=[*:3])C(=O)[*:2])[*:1]; X36 = CN([C@@H](CCCC=[*:3])C(=O)[*:2])[*:1]; dαMeAlg = C[C@](CC=[*:3])(N[*:1])C(=O)[*:2]; X47 = CN([C@@H](CCC=[*:3])C(=O)[*:2])[*:1]; NMeGly(cPent) = CN[C@H](C(=O)O)C1CCCC1; NMeSer(allyl) = C=CCOC[C@H](NC)C(=O)O; Hyp = O=C(O)[C@@H]1C[C@@H](O)CN1; NMeD = CN[C@@H](CC(=O)O)C(=O)O; Morpholide = C1CN(*)CCO1; Ac5c = NC1(C(=O)O)CCCC1; Sar = CNCC(=O)O

Legend:
[1] = target: GDP-bound NRAS wild-type protein (Homo sapiens, UniProt P01111); test: Binding to NRAS by surface plasmon resonance (SPR), KD and KD ratio to KRAS; details: ratio of KD for GDP-bound NRAS wild-type protein to KD for KRAS
GDP-bound NRAS wild-type protein, sequence (P01111 whole entry): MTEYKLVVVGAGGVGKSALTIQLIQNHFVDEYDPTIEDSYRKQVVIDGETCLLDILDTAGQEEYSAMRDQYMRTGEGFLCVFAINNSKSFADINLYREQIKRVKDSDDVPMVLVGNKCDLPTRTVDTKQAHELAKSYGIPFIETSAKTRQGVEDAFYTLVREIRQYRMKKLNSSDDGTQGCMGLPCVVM
Method in brief: (§1)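 GDP-bound biotin-Avi RAS captured at ~100–300 RU, 30°C, pH 7.4 HBS containing 10 µM GDP, 10 mM MgCl2, 1 mM DTT, 0.01% Tween 20 and 4% DMSO. KD by 1:1 fitting.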

HRAS wild-type protein = HRAS wild-type protein (Homo sapiens, UniProt P01112); test: Binding to HRAS by surface plasmon resonance (SPR), KD and KD ratio to KRAS; details: ratio of KD for HRAS wild-type protein to KD for KRAS
HRAS wild-type protein, sequence (P01112 whole entry): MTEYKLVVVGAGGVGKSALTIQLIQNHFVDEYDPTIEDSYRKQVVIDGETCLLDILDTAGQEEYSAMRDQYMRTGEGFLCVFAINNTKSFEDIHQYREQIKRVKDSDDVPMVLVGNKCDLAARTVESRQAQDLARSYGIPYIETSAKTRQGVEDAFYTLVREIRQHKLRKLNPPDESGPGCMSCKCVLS
Method in brief: as §1

[2] = tested on: human lung cancer strain NCI-H441; type: cell-based
Method in brief: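 Readout: […] after the ATP-based reagent. Compound: serial dilutions in dimethyl sulfoxide.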

Structure (SMILES) | NRAS /KRAS [1] | HRAS /KRAS (HRAS wild-type protein) | IC50 [2] [nM]
CCO[C@@H]1C[C@H]2C(=O)NC3(CCC3)C(=O)N(C)[C@@H](C3CCCC3)C(=O)N(C)[C@H](C(=O)N(C)C)CC(=O)N(C)[C@@H](CC)C(=O)N[C@@H]([C@@H](C)CC)C(=O)N(C)CC(=O)N(C)[C@H]3CCCCN(C3=O)[C@@H](Cc3ccc(C(F)(F)F)cc3)C(=O)N(C)CC(=O)N[C@@H](CCc3c(F)c(F)c(C(F)(F)F)c(F)c3F)C(=O)N2C1 [PP0886] | C (A compound having a KD ratio of 0.1 or more and less than 3 is denoted as C) | B (a compound having 3 or more and less than 10 is denoted as B) | 14.3
CCO[C@@H]1C[C@H]2C(=O)NC3(CCC3)C(=O)N(C)[C@@H](C3CCCC3)C(=O)N(C)[C@H](C(=O)N(C)C)CC(=O)N(C)[C@@H](CC)C(=O)N[C@@H]([C@@H](C)CC)C(=O)N(C)CC(=O)N(C)[C@H]3CCCCN(C3=O)[C@@H](Cc3ccc(C(F)(F)F)cc3)C(=O)N(C)CC(=O)N[C@@H](CCc3ccc4sccc4c3)C(=O)N2C1 [PP0887] | C (A compound having a KD ratio of 0.1 or more and less than 3 is denoted as C) | C (A compound having a KD ratio of 0.1 or more and less than 3 is denoted as C) | 19
CCO[C@@H]1C[C@H]2C(=O)NC3(CCC3)C(=O)N(C)[C@@H](C3CCCC3)C(=O)N(C)[C@H](C(=O)N(C)C)CC(=O)N(C)[C@@H](CC)C(=O)N[C@@H]([C@@H](C)CC)C(=O)N(C)CC(=O)N(C)[C@H]3CCCCCN(C3=O)[C@@H](Cc3ccc(C(F)(F)F)cc3)C(=O)N(C)CC(=O)N[C@@H](CCc3c(F)c(F)c(C(F)(F)F)c(F)c3F)C(=O)N2C1 [PP0891] | B (a compound having 3 or more and less than 10 is denoted as B) | B (a compound having 3 or more and less than 10 is denoted as B) | 154
CCCN1C(=O)CN(C)C(=O)CN(C)C(=O)[C@H]([C@@H](C)CC)NC(=O)[C@@H]2CCCCOc3ccc(cc3)C[C@H]1C(=O)N(C)CC(=O)N[C@@H](CCc1cc(F)c(C(F)(F)F)c(F)c1)C(=O)N1C[C@H](OCC)C[C@H]1C(=O)NC1(CCCC1)C(=O)N(C)[C@@H](C1CCCC1)C(=O)N(C)[C@H](C(=O)N(C)C)CC(=O)N2C [PP0894] | C (A compound having a KD ratio of 0.1 or more and less than 3 is denoted as C) | C (A compound having a KD ratio of 0.1 or more and less than 3 is denoted as C) | 3.7
CCCN1C(=O)CN(C)C(=O)CN(C)C(=O)[C@H]([C@@H](C)CC)NC(=O)[C@@H]2CCCCCOc3ccc(cc3)C[C@H]1C(=O)N(C)CC(=O)N[C@@H](CCc1cc(F)c(C(F)(F)F)c(F)c1)C(=O)N1C[C@H](OCC)C[C@H]1C(=O)NC1(CCCC1)C(=O)N(C)[C@@H](C1CCCC1)C(=O)N(C)[C@H](C(=O)N(C)C)CC(=O)N2C [PP0895] | C (A compound having a KD ratio of 0.1 or more and less than 3 is denoted as C) | C (A compound having a KD ratio of 0.1 or more and less than 3 is denoted as C) | 2.2
CCCN1C(=O)CN(C)C(=O)CN(C)C(=O)[C@H]([C@@H](C)CC)NC(=O)[C@@H]2CCCCCCOc3ccc(cc3)C[C@H]1C(=O)N(C)CC(=O)N[C@@H](CCc1cc(F)c(C(F)(F)F)c(F)c1)C(=O)N1C[C@H](OCC)C[C@H]1C(=O)NC1(CCCC1)C(=O)N(C)[C@@H](C1CCCC1)C(=O)N(C)[C@H](C(=O)N(C)C)CC(=O)N2C [PP0896] | C (A compound having a KD ratio of 0.1 or more and less than 3 is denoted as C) | C (A compound having a KD ratio of 0.1 or more and less than 3 is denoted as C) | 3.1
CCCN1C(=O)CN(C)C(=O)CN(C)C(=O)[C@H]([C@@H](C)CC)NC(=O)[C@@H]2CCCCCCC[C@@](C)(NC(=O)[C@@H]3C[C@@H](OCC)CN3C(=O)[C@H](CCc3cc(F)c(C(F)(F)F)c(F)c3)NC(=O)CN(C)C(=O)[C@@H]1Cc1ccc(C(F)(F)F)cc1)C(=O)N(C)[C@@H](C1CCCC1)C(=O)N(C)[C@H](C(=O)N1CCOCC1)CC(=O)N2C [PP0898] | B (a compound having 3 or more and less than 10 is denoted as B) | B (a compound having 3 or more and less than 10 is denoted as B) | 120
CCCN1C(=O)CN(C)C(=O)CN(C)C(=O)[C@H]([C@@H](C)CC)NC(=O)[C@@H]2COCCCC[C@@](C)(NC(=O)[C@@H]3C[C@@H](OCC)CN3C(=O)[C@H](CCc3cc(F)c(C(F)(F)F)c(F)c3)NC(=O)CN(C)C(=O)[C@@H]1Cc1ccc(C(F)(F)F)cc1)C(=O)N(C)[C@@H](C1CCCC1)C(=O)N(C)[C@H](C(=O)N1CCOCC1)CC(=O)N2C [PP0899] | A (a compound having 10 or more and less than 20 is denoted as A) | B (a compound having 3 or more and less than 10 is denoted as B) | 923
CCCN1C(=O)CN(C)C(=O)CN(C)C(=O)[C@H]([C@@H](C)CC)NC(=O)[C@@H]2CCC=CCOc3ccc(cc3)C[C@H]1C(=O)N(C)CC(=O)N[C@@H](CCc1cc(F)c(C(F)(F)F)c(F)c1)C(=O)N1C[C@H](OCC)C[C@H]1C(=O)NC1(CCCC1)C(=O)N(C)[C@@H](C1CCCC1)C(=O)N(C)[C@H](C(=O)N(C)C)CC(=O)N2C [PP0900] ([X47]I[Sar][Sar][X48][Sar][hPhe(3,5-F2-4-CF3)][Hyp](Et)[Ac5c][NMeGly(cPent)][NMeD]-NMe2; staple 1-5; lactam N-11) | C (A compound having a KD ratio of 0.1 or more and less than 3 is denoted as C) | C (A compound having a KD ratio of 0.1 or more and less than 3 is denoted as C) | 4.9
CCCN1C(=O)CN(C)C(=O)CN(C)C(=O)[C@H]([C@@H](C)CC)NC(=O)[C@@H]2CCCC=CC[C@@](C)(NC(=O)[C@@H]3C[C@@H](OCC)CN3C(=O)[C@H](CCc3cc(F)c(C(F)(F)F)c(F)c3)NC(=O)CN(C)C(=O)[C@@H]1Cc1ccc(C(F)(F)F)cc1)C(=O)N(C)[C@@H](C1CCCC1)C(=O)N(C)[C@H](C(=O)N1CCOCC1)CC(=O)N2C [PP0901] ([X36]I[Sar][Sar][NPrPhe(4-CF3)][Sar][hPhe(3,5-F2-4-CF3)][Hyp](Et)[dαMeAlg][NMeGly(cPent)][NMeD]-Morpholide; staple 1-9; lactam N-11) | B (a compound having 3 or more and less than 10 is denoted as B) | B (a compound having 3 or more and less than 10 is denoted as B) | 332
CCCN1C(=O)CN(C)C(=O)CN(C)C(=O)[C@H]([C@@H](C)CC)NC(=O)[C@@H]2CCCCC=CC[C@@](C)(NC(=O)[C@@H]3C[C@@H](OCC)CN3C(=O)[C@H](CCc3cc(F)c(C(F)(F)F)c(F)c3)NC(=O)CN(C)C(=O)[C@@H]1Cc1ccc(C(F)(F)F)cc1)C(=O)N(C)[C@@H](C1CCCC1)C(=O)N(C)[C@H](C(=O)N1CCOCC1)CC(=O)N2C [PP0902] ([X17]I[Sar][Sar][NPrPhe(4-CF3)][Sar][hPhe(3,5-F2-4-CF3)][Hyp](Et)[dαMeAlg][NMeGly(cPent)][NMeD]-Morpholide; staple 1-9; lactam N-11) | A (a compound having 10 or more and less than 20 is denoted as A) | B (a compound having 3 or more and less than 10 is denoted as B) | 72.6
CCCN1C(=O)CN(C)C(=O)CN(C)C(=O)[C@H]([C@@H](C)CC)NC(=O)[C@@H]2COCC=CC[C@@](C)(NC(=O)[C@@H]3C[C@@H](OCC)CN3C(=O)[C@H](CCc3cc(F)c(C(F)(F)F)c(F)c3)NC(=O)CN(C)C(=O)[C@@H]1Cc1ccc(C(F)(F)F)cc1)C(=O)N(C)[C@@H](C1CCCC1)C(=O)N(C)[C@H](C(=O)N1CCOCC1)CC(=O)N2C [PP0903] ([NMeSer(allyl)]I[Sar][Sar][NPrPhe(4-CF3)][Sar][hPhe(3,5-F2-4-CF3)][Hyp](Et)[dαMeAlg][NMeGly(cPent)][NMeD]-Morpholide; staple 1-9; lactam N-11) | B (a compound having 3 or more and less than 10 is denoted as B) | C (A compound having a KD ratio of 0.1 or more and less than 3 is denoted as C) | 596
CCO[C@@H]1C[C@H]2C(=O)NC3(CCC3)C(=O)N(C)[C@@H](C3CCCC3)C(=O)N(C)[C@H](C(=O)N(C)C)CC(=O)N(C)[C@@H](CC)C(=O)N[C@@H]([C@@H](C)CC)C(=O)N(C)CC(=O)N(C)[C@H]3CCCCCN(C3=O)[C@@H](Cc3ccc(F)c(Cl)c3)C(=O)N(C)CC(=O)N[C@@H](CCc3cc(F)c(C(F)(F)F)c(F)c3)C(=O)N2C1 [PP0909] | B (a compound having 3 or more and less than 10 is denoted as B) | B (a compound having 3 or more and less than 10 is denoted as B) | 58.1
CCO[C@@H]1C[C@H]2C(=O)NC3(CCC3)C(=O)N(C)[C@@H](C3CCCC3)C(=O)N(C)[C@H](C(=O)N(C)C)CC(=O)N(C)[C@@H](CC)C(=O)N[C@@H]([C@@H](C)CC)C(=O)N(C)CC(=O)N(C)[C@H]3CCCCCN(C3=O)[C@@H](Cc3ccc(F)cc3C)C(=O)N(C)CC(=O)N[C@@H](CCc3cc(F)c(C(F)(F)F)c(F)c3)C(=O)N2C1 [PP0911] | B (a compound having 3 or more and less than 10 is denoted as B) | B (a compound having 3 or more and less than 10 is denoted as B) | 10.2
CCO[C@@H]1C[C@H]2C(=O)NC3(CCC3)C(=O)N(C)[C@@H](C3CCCC3)C(=O)N(C)[C@H](C(=O)N(C)C)CC(=O)N(C)[C@@H](CC)C(=O)N[C@@H]([C@@H](C)CC)C(=O)N(C)CC(=O)N(C)[C@H]3CCCCCN(C3=O)[C@@H](Cc3ccc(F)cc3OC)C(=O)N(C)CC(=O)N[C@@H](CCc3cc(F)c(C(F)(F)F)c(F)c3)C(=O)N2C1 [PP0914] | B (a compound having 3 or more and less than 10 is denoted as B) | B (a compound having 3 or more and less than 10 is denoted as B) | 40.2
